The values below come from the PolyMetriX glass transition set.

Compound `*/C=C(/*)CCCOc1ccc(OC(=O)c2ccc(OCCCC)cc2)cc1` (repeat unit) had a glass transition temperature of 36.00 °C.
`*C(=O)Nc1cc(NC(=O)c2cncc(*)c2)cc(-c2nnc(-c3ccccn3)o2)c1` (repeat unit): the glass transition temperature came to 185.00 °C.
Under `*C(=O)Nc1ccc(-c2ccc(N3C(=O)CC(N4C(=O)c5ccc(*)cc5C4=O)C3=O)cc2)cc1` (repeat unit) stands 219.00 °C; under `*C(=O)Nc1ccc(-c2ccc(NC(=O)c3ccc4c(c3)C(=O)N(c3ccc(Oc5ccc(N6C(=O)c7ccc(*)cc7C6=O)cc5)cc3)C4=O)cc2)cc1` (repeat unit), 315.00 °C; under `*C(=O)Nc1ccc(-c2ccc(NC(=O)c3ccc4c(c3)C(=O)N(c3cccc(P(=O)(c5ccccc5)c5cccc(N6C(=O)c7ccc(*)cc7C6=O)c5)c3)C4=O)cc2)cc1` (repeat unit), 253.00 °C.
As to `*C(=O)Nc1ccc(-c2sc(-c3ccc(NC(=O)c4ccc5c(c4)C(=O)N(c4ccc(Oc6ccc7ccc(Oc8ccc(N9C(=O)c%10ccc(*)cc%10C9=O)cc8)cc7c6)cc4)C5=O)cc3)c(-c3ccccc3)c2-c2ccccc2)cc1` (repeat unit), the glass transition temperature came to 311.00 °C.
Under `*C(=O)Nc1ccc(-c2sc(-c3ccc(NC(=O)c4ccc5c(c4)C(=O)N(c4ccc(Oc6cccc7c(Oc8ccc(N9C(=O)c%10ccc(*)cc%10C9=O)cc8)cccc67)cc4)C5=O)cc3)c(-c3ccccc3)c2-c2ccccc2)cc1` (repeat unit) stands 340.00 °C; under `*C(=O)Nc1ccc(C(c2ccc(NC(=O)c3ccc4c(c3)C(=O)N(c3ccc(Oc5cccc6c(Oc7ccc(N8C(=O)c9ccc(*)cc9C8=O)cc7)cccc56)cc3)C4=O)cc2)(C(F)(F)F)C(F)(F)F)cc1` (repeat unit), 283.00 °C.
`*C(=O)Nc1ccc(C2(c3ccc(NC(=O)c4ccc5c(c4)C(=O)N(c4ccc(Oc6ccc(N7C(=O)c8ccc(*)cc8C7=O)cc6)cc4)C5=O)cc3)c3ccccc3-c3ccccc32)cc1` (repeat unit): the glass transition temperature was determined as 240.00 °C.
`*C(=O)Nc1ccc(C2(c3ccc(NC(=O)c4ccc5c(c4)C(=O)N(c4ccc(Sc6ccc(Oc7ccc(Sc8ccc(N9C(=O)c%10ccc(*)cc%10C9=O)cc8)cc7)cc6)cc4)C5=O)cc3)c3ccccc3-c3ccccc32)cc1` (repeat unit) gave a glass transition temperature of 298.00 °C.
For `*C(=O)Nc1ccc(C2(c3ccc(NC(=O)c4ccc5c(c4)C(=O)N(c4cccc(N6C(=O)c7ccc(*)cc7C6=O)c4)C5=O)cc3)c3ccccc3-c3ccccc32)cc1` (repeat unit), the glass transition temperature amounted to 209.00 °C.
The compound `*C(=O)Nc1ccc(Cc2ccc(N3C(=O)c4ccc(*)cc4C3=O)cc2)cc1` (repeat unit) displayed a glass transition temperature of 279.50 °C.
Take `*C(=O)OCCCCCCCCCOC(=O)c1ccc(NC(=O)c2ccc(N3C(=O)c4ccc(*)cc4C3=O)cc2)cc1` (repeat unit): the glass transition temperature came to 100.00 °C.
Compound `*C(=O)c1cc2c(cc1Cl)C(=O)N(c1cc(N3C(=O)c4cc(*)c(Cl)cc4C3=O)cc(C(F)(F)F)c1)C2=O` (repeat unit) returned a glass transition temperature of 305.00 °C.
`*CC1CCC(COC(=O)Nc2ccc(Cc3ccc(NC(=O)O*)cc3)cc2)CC1` (repeat unit) displayed a glass transition temperature of 134.00 °C.
`*CCCCCCCCCCCCCCCCOC(=O)Nc1ccc(Cc2ccc(NC(=O)O*)cc2)cc1` (repeat unit): the glass transition temperature came to 40.00 °C.
In turn, `*CCCCCCCCCCOC(=O)Nc1ccc(Cc2ccc(NC(=O)O*)cc2)cc1` (repeat unit) showed a glass transition temperature of 60.00 °C.
`*CCCCCCCCCOC(=O)Nc1ccc(Cc2ccc(NC(=O)O*)cc2)cc1` (repeat unit) gave a glass transition temperature of 72.00 °C.
For the compound `*CCCCCCOC(=O)Nc1ccc(Cc2ccc(NC(=O)O*)cc2)cc1` (repeat unit), the glass transition temperature was determined as 71.00 °C.
Under `*CCCCCCOc1ccc(-c2cc(-c3ccccc3)c(-c3ccc(NC(=O)c4ccc(C(=O)Nc5ccc(-c6c(-c7ccccc7)cc(-c7ccc(O*)cc7)cc6-c6ccccc6)cc5)cc4)cc3)c(-c3ccccc3)c2)cc1` (repeat unit) stands 127.00 °C.
`*CCCCCOC(=O)Nc1ccc(Cc2ccc(NC(=O)O*)cc2)cc1` (repeat unit) registered a glass transition temperature of 95.00 °C.
Regarding `*CCOC(=O)Nc1ccc(CCCc2ccc(NC(=O)O*)cc2)cc1` (repeat unit), the glass transition temperature was 74.10 °C.
`*CCOC(=O)Nc1ccc(Cc2ccc(NC(=O)O*)cc2)cc1` (repeat unit) showed a glass transition temperature of 139.00 °C.
`*CCc1ccc(NC(=O)c2cccc(C(=O)Nc3ccc(CCOC(=O)c4cccc(C(=O)O*)c4)cc3)c2)cc1` (repeat unit) displayed a glass transition temperature of 142.00 °C.
Under `*Nc1ccc(-c2ccc(NC(=O)c3cccc(C(*)=O)c3)c(S)c2)cc1S` (repeat unit) stands 395.00 °C; under `*Nc1ccc(C(c2ccc(NC(=O)c3cc(NC(=O)C45CC6CC(CC(C6)C4)C5)cc(C(*)=O)c3)cc2)(C(F)(F)F)C(F)(F)F)cc1` (repeat unit), 365.00 °C.
Compound `*Nc1ccc(C(c2ccc(NC(=O)c3ccc(C(*)=O)cc3)cc2)(C(F)(F)F)C(F)(F)F)cc1` (repeat unit) returned a glass transition temperature of 290.00 °C.
Under `*Nc1ccc(C(c2ccc(NC(=O)c3cccc(C(*)=O)c3)cc2)(C(F)(F)F)C(F)(F)F)cc1` (repeat unit) stands 272.00 °C.
`*Nc1ccc(C2(c3ccc(NC(=O)c4cccc(C(*)=O)c4)cc3)c3ccccc3-c3ccccc32)cc1` (repeat unit): the glass transition temperature came out at 277.00 °C.
As to `*Nc1cccc(/C=C/c2ccc(NC(=O)c3cccc(C(*)=O)c3)cc2)c1` (repeat unit), the glass transition temperature was 272.00 °C.
Compound `*Nc1cccc(C#Cc2ccc(NC(=O)c3cccc(C(*)=O)c3)cc2)c1` (repeat unit) gave a glass transition temperature of 268.00 °C.
On to `*Nc1cccc(CCc2ccc(NC(=O)c3ccc(C(*)=O)cc3)cc2)c1` (repeat unit), for which the glass transition temperature turned out to be 203.00 °C.
In the case of `*Nc1ccccc1CCc1ccc(NC(=O)Nc2ccc(CCc3ccc(NC(*)=O)cc3)cc2)cc1` (repeat unit), the glass transition temperature was determined as 217.00 °C.
Under `*Oc1ccc(C(=O)Nc2ccc(Br)cc2-c2ccc(NC(=O)c3ccc(*)cc3)cc2)cc1` (repeat unit) stands 249.00 °C; under `*Oc1ccc(C(=O)Nc2ccc(C(c3ccc(NC(=O)c4ccc(*)cc4)cc3)(P3(=O)Oc4ccccc4-c4ccccc43)P3(=O)Oc4ccccc4-c4ccccc43)cc2)cc1` (repeat unit), 243.00 °C; under `*Oc1ccc(C(=O)c2ccc(NC(=O)c3ccc(C(=O)Nc4ccc(C(=O)c5ccc(*)cc5)cc4)cc3)cc2)cc1` (repeat unit), 187.00 °C.
`*Oc1ccc(C(=O)c2ccc(NC(=O)c3cccc(C(=O)Nc4ccc(C(=O)c5ccc(*)cc5)cc4)c3)cc2)cc1` (repeat unit) registered a glass transition temperature of 214.00 °C.
Compound `*Oc1ccc(NC(=O)Nc2ccccc2CCc2ccc(NC(=O)Nc3ccc(*)cc3)cc2)cc1` (repeat unit) showed a glass transition temperature of 200.00 °C.
In turn, `*Oc1ccc(Oc2ccc(C(=O)c3ccc(-c4ccc(C(=O)c5ccc(*)cc5)cc4)cc3)cc2)cc1-c1ccccc1` (repeat unit) came in with a glass transition temperature of 186.00 °C.
With `*c1cc(C(=O)Nc2ccc(-c3nnc(*)o3)cc2)cc(N2C(=O)c3ccccc3C2=O)c1` (repeat unit), the glass transition temperature stood at 324.00 °C.
The compound `*c1ccc(-c2ccc(NC(=O)c3cccc(C(=O)Nc4ccc(-c5ccc(-n6c(=O)c7cc8c(=O)n(*)c(=O)c8cc7c6=O)cc5)cc4)c3)cc2)cc1` (repeat unit) yielded a glass transition temperature of 227.00 °C.
Under `*c1ccc(-c2ccc(NC(=O)c3cccc(C(=O)Nc4ccc(-c5ccc(N6C(=O)c7ccc(Oc8ccc9c(c8)C(=O)N(*)C9=O)cc7C6=O)cc5)cc4)c3)cc2)cc1` (repeat unit) stands 233.00 °C; under `*c1ccc(C(=O)c2ccc(-n3c(=O)c4cc5c(=O)n(*)c(=O)c5cc4c3=O)cc2)cc1` (repeat unit), 424.00 °C; under `*c1ccc(C(=O)c2ccc(Oc3ccc(-c4nn(*)c(=O)c5ccccc45)c(F)c3)cc2)cc1` (repeat unit), 253.00 °C.
The compound `*c1ccc(C(=O)c2ccc(Oc3ccc(-c4nn(*)c(=O)c5ccccc45)cc3Br)cc2)cc1` (repeat unit) registered a glass transition temperature of 254.00 °C.
The compound `*c1ccc(Cc2ccc(NC(=O)c3cccc(-c4nc5cc(-c6ccc7[nH]c(-c8cccc(C(=O)Nc9ccc(Cc%10ccc(-n%11c(=O)c%12cc%13c(=O)n(*)c(=O)c%13cc%12c%11=O)cc%10)cc9)c8)nc7c6)ccc5[nH]4)c3)cc2)cc1` (repeat unit) yielded a glass transition temperature of 277.00 °C.
For the compound `*c1ccc(Cc2ccc(NC(=O)c3cccc(Oc4ccc5c(c4)C(=O)N(*)C5=O)c3)cc2)cc1` (repeat unit), the glass transition temperature was found to be 243.00 °C.
Under `*c1ccc(NC2CC(=O)N(c3ccc(Cc4ccc(N5C(=O)CC(Nc6ccc(-c7nc(-c8ccc(/N=N/c9ccc([N+](=O)[O-])cc9)cc8)[nH]c7*)cc6)C5=O)cc4)cc3)C2=O)cc1` (repeat unit) stands 258.00 °C; under `*c1ccc(Nc2nc(Nc3ccc(-c4nc5cc(-c6ccc7[nH]c(*)nc7c6)ccc5[nH]4)cc3)nc(N(c3ccccc3)c3ccccc3)n2)cc1` (repeat unit), 329.00 °C; under `*c1ccc2c(c1)C(=O)N(c1ccc(C(=O)Nc3ccc(C(c4ccc(NC(=O)c5ccc(N6C(=O)c7ccc(C(*)(C(F)(F)F)C(F)(F)F)cc7C6=O)cc5)cc4)(C(F)(F)F)C(F)(F)F)cc3)cc1)C2=O` (repeat unit), 351.00 °C.
For the compound `*c1ccc2c(c1)C(=O)N(c1cccc(C(=O)Nc3ccc(-c4ccc(NC(=O)c5cccc(N6C(=O)c7ccc(C(*)(C(F)(F)F)C(F)(F)F)cc7C6=O)c5)cc4)cc3)c1)C2=O` (repeat unit), the glass transition temperature stood at 324.00 °C.
`*c1ccc2c(c1)C(=O)N(c1cccc(C(=O)Nc3ccc(C(c4ccc(NC(=O)c5cccc(N6C(=O)c7ccc(C(*)(C(F)(F)F)C(F)(F)F)cc7C6=O)c5)cc4)(C(F)(F)F)C(F)(F)F)cc3)c1)C2=O` (repeat unit) came in with a glass transition temperature of 273.50 °C.
